What was measured:
[1] = system: SRS-A generation in rats pleural exudate; test: Effects on SRS-A generation in pleural exudate in rat reversed passive Arthus pleurisy; type: in vivo
Procedure: (§1) Effects on Increased Vascular Permeability and Slow Reacting Substance of Anaphylaxis (SRS-A) Generation in Rat Reversed Passive Arthus Pleurisy
(§2) The rat reversed passive Arthus pleurisy was induced by the method of Yamamoto et al. Agents Actions, 5, 374-377 (1975)]. Rats were given 1 ml of saline containing 5 mg of egg albumin intravenously followed 0.2 ml of rabbit anti-agg albumin antiserum injected into the pleural cavity. Just after that, 0.5 ml of saline contained 1% Evans blue was administered intravenously to the rats. 30 Minutes later, the animals were killed by bleeding, and the pleural cavity was rinsed with 2 ml of saline. The concentrations of the dye in the pleural exudate and the peripheral blood were measured to calculate the volume of serum infiltrated into the pleural cavity. The vascular permeability (dye concentration in pleural cavity/dye concentration in peripheral blood) was expressed as μl serum/30 min. On the other hand, the amount of SRS-A generated in the pleural cavity was determined by the following procedures. 30 Minutes after induction of the pleurisy, the aminals were killed by bleeding and the pleural cavity was rinsed with 2 ml of saline. 9 Milliliter of cold absolute ethanol were immediately added to the rinsed solution. The mixture was allowed to stand at 4° C. for 30 min. After the mixture was centrifuged at 3000 r.p.m. for 10 min, the supernatant was concentrated by evaporation. The resulting residue was dissolved in 0.5 ml of saline. The amount of SRS-A generated was bioassayed using guinea pig ileum.

[2] = system: vascular permeability during early response of rat reversed passive Arthus pleurisy; test: Effects on vascular permeability in rat reversed passive Arthus pleurisy; type: in vivo
Procedure: as §1, §2

[3] = system: O2^- production in guinea pigs peritoneal macrophages; test: Inhibitory effect on O2- production in guinea pig peritoneal macrophages (chemiluminescence); type: cell-based, guinea pig (Hartley); settings: Cavia porcellus, Peritoneal macrophage, 3 experiments; for inhibition at 100 µM: 10^-4 M; for inhibition at 10 µM: 10^-5 M; for inhibition at 1 µM: 10^-6 M
Procedure: Superoxide (O2^-) Production in Guinea Pig Peritoneal Macrophages
Male Hartley guinea pigs weighing 400-450 g were given intraperitoneally 5 ml of liquid paraffin. Four days later, 15 ml of Hank's buffer were administered into the peritoneal cavity for harvest of peritoneal cells. Macrophages in the peritoneal cells were purified by the method of Wood, P. R. [J. Immunol. Methods, 28, 117-124 (1979)].
The purity of macrophages was more than 95%. The reaction mixture contained 75 μl of macrophages (1×10^7 cells/ml), 5 μl of luminol, 10 μl of phorbol myristate acetate and 10 μl of drugs in a total volume of 100 μl. O2^- Product was assayed by chemiluminescence. Drugs were dissolved in a 10% dimethyl sulfoxide.

[4] = system: Fe^3+ -NTA-induced injury of rat kidney; test: Inhibitory effect on Fe3+-NTA-induced injury of rat kidney; type: in vivo, Wistar rats; settings: 20 mg/kg oral once a day; for body weight gain: control 9.8 ± 5.4, normal 68.3 ± 2.3; for Urinary volume: control 20, normal 6.8; for Urinary protein: control 25.1, normal 5.1
Procedure: Ferric Nitrilotriacetate (Fe^3+ -NTA)-Induced Injury of Rat Kidney
Male Wistar rats of 4 weeks old weighing about 80 g were used. Injury of kidney was induced by the method of Awai et al. [Amer. J. Pathol., 95, 663-674 (1979)]. The mixture of ferric nitrate and NTA as a ratio of 1:4 was intraperitoneally given: iron of 5 mg/kg for 3 days followed 10 mg/kg for 9 days. Twelve days later, the animals were killed. Body weight gain, urinary volume, urinary protein and wet and dry weights of kidney were measured. Drugs were suspended in a 5% gum arabic solution and given orally once a day in a dose of 20 mg/kg.

5-Lipoxygenase = molecular target: T1, 5-Lipoxygenase (Rattus norvegicus, UniProt P12527); test: 5-Lipoxygenase inhibitory activity: 5-HETE production in RBL-1 cells (HPLC); type: cell-based, rat (RBL-1, rat basophilic leukemia cells); settings: arachidonic acid + A 23187, 37° C., 20 minutes, read-out: 5-HETE production inhibiting effect (IC50)
T1 construct: endogenous in cells; host or cells: RBL-1 (rat basophilic leukemia cells)
T1 sequence (P12527 1-673): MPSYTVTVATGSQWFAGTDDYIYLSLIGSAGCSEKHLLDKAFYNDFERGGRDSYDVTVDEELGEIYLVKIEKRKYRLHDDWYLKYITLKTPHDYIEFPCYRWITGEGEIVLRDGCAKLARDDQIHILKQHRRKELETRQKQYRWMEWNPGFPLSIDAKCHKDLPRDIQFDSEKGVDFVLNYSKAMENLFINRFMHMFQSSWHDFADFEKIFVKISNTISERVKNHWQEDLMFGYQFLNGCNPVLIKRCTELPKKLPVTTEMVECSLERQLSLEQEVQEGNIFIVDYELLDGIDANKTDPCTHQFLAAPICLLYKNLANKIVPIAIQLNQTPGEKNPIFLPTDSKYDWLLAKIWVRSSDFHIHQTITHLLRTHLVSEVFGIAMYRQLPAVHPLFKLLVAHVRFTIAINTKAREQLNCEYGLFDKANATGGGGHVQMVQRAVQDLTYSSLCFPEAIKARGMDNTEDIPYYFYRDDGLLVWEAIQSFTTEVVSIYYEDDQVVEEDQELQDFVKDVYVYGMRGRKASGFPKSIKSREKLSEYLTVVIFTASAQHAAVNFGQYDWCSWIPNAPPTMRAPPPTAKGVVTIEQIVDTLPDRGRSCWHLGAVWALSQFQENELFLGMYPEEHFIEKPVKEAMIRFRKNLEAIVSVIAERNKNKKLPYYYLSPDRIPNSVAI
Procedure: 5-Lipoxygenase Inhibitory Activity
10^7 RBL-1 cells (rat basophilic leukemia cells) were suspended in 0.5 ml of MCM (mast cell medium), and test solutions (made up of 0.5 ml of MCM, 50 μg of arachidonic acid, 10 μg of A 23187 (calcium ionophore, Eli Lilly) and 1 μM, 0.1 μM, 0.01 μM and0.001 μM as the final concentration of the quinone compound, respectively) prepared previously were added respectively to the suspension, followed by reaction at 37° C. for 20 minutes. After the conclusion of the reaction, 4 ml of ethanol and 1,4-dimethoxy-2-methyl-3-(3-methoxypropyl)naphthalene as the internal reference drug were added to the reaction solution, and the mixture was shaken thoroughly and allowed to stand at room temperature for 10 minutes. Then, it was centrifuged (2000 r.p.m.) for 10 minutes, and the supernatant fluid was separated and concentrated to dryness under reduced pressure. 0.5 Milliliter of 60% aqueous methanol was added to the concentrate, and 100 μl of the resulting solution was taken and subjected to high-performance liquid chromatography to determine amount of 5-HETE (5-hydroxyeicosatetraenoic acid). Determination of 5-HETE was made through measurement of an absorption at 237 nm with a UV absorption monitor.
The 5-HETE production inhibitory effect (IE) was expressed by [formula] wherein a is a peak height or peak area corrected by the peak for the internal reference when the quinone compound is not contained; b is a peak height or peak area corrected by the peak for the internal reference when the quinone compound is contained.

| SMILES | % Inhibition of SRS-A generation in pleural exudate ([1]; 0.1 mg/rat) [%] | % Inhibition of SRS-A generation in pleural exudate ([1]; 1 mg/rat) [%] | % Inhibition of vascular permeability ([2]; 0.1 mg/rat) [%] | % Inhibition of vascular permeability ([2]; 1 mg/rat) [%] | inhibition at 100 µM [3] [%] | inhibition at 10 µM [3] [%] | inhibition at 1 µM [3] [%] | Urinary protein (% inhibition) [4] [%] | Urinary volume (% Inhibition) [4] [%] | Water content in kidney (% Inhibition) [4] [%] | body weight gain [4] [g] | Urinary volume [4] [mL/day] | Urinary protein [4] [mg/day] | IC50 (5-Lipoxygenase) [nM] |
| --- | --- | --- | --- | --- | --- | --- | --- | --- | --- | --- | --- | --- | --- | --- |
| CC1=C(C)C(=O)C(C(CCCCCC(=O)O)c2ccc(C)cc2)=C(C)C1=O (stereo not shown) [Compound No. 93] | -6 | 56 | 14 | 43 | 91 ± 3 | 33 ± 12 | 9 ± 6 | 10 | 47 | 7 | 26.2 ± 4.9 | 13.6 | 23.1 | 90 |
| CC1=C(C)C(=O)C(C(CCCCCC(=O)O)c2ccccc2)=C(C)C1=O (stereo not shown) [Compound No. 50, 7-(3,5,6-trimethyl-1,4-benzoquinon-2-yl)-7-phenylheptanoic acid] | 49 | 77 | 21 | 47 | 88 ± 2 | 38 ± 3 | 16 ± 6 | 88 | 88 | 81 | 39.3 ± 7.4 | 8.4 | 7.5 | 28 |

Source: US5180742A, “Quinone derivatives, their production and use” (Takeda Chemical Industries, Ltd., priority 1984, dated 1993)
